One experiment deals with A2780. Put plainly: Antiproliferative activity against human A2780 cells. The format is functional, cell-based.
For experiment [1], the target named is Peptidyl-prolyl cis-trans isomerase NIMA-interacting 1 (Homo sapiens, UniProt Q13526). Briefly: Inhibition of Pin1 PPIase activity.

We go through 2 molecules from ChEMBL document CHEMBL1140561, “A phosphorylated prodrug for the inhibition of Pin1” (Bioorg Med Chem Lett, 2007).

SMILES strings stand for the structures.

Sequence of Peptidyl-prolyl cis-trans isomerase NIMA-interacting 1 (Q13526 whole entry): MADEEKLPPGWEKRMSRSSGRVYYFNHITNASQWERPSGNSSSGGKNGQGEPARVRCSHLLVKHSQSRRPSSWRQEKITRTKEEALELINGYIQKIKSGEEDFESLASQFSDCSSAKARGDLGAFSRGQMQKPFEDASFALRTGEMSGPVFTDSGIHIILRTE

With `O=C(N[C@H](/C=C1\CCC[C@H]1C(=O)NCCc1c[nH]c2ccccc12)COP(=O)(O)O)OCC1c2ccccc2-c2ccccc21`, the values for the IC50 (in the experiment with A2780; in experiment [1]) were 46.2 µM and 28.3 µM, respectively.

Regarding `CC(C)(C)C(=O)OCOP(=O)(OCOC(=O)C(C)(C)C)OC[C@@H](/C=C1\CCC[C@H]1C(=O)NCCc1c[nH]c2ccccc12)NC(=O)OCC1c2ccccc2-c2ccccc21`, in the experiment on A2780, half-maximal inhibition (IC50) required 26.9 µM.
